Data: PubChem BioAssay (NCI)
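96-well plates; 48 h exposure; 5 concentrations. Endpoints by linear interpolation between flanking doses. Not reached: highest tested concentration assigned. Here, GI50 denotes the concentration required for 50% inhibition of growth. At the TGI there is no net growth.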

Columns and labels:
Test in all cases: NCI anticancer screen, dose series, 48 h
[1] = tested on: SF-268 CNS
[2] = tested on: HCT-116 colon
[3] = tested on: UO-31 renal
[4] = tested on: SF-539 CNS
[5] = tested on: OVCAR-3 ovarian
[6] = tested on: UACC-257 melanoma
[7] = tested on: A498 renal
[8] = tested on: A549 NSCLC
[9] = tested on: DU-145 prostate
[10] = tested on: SF-295 CNS
[11] = tested on: KM12 colon
[12] = tested on: NCI/ADR-RES ovarian
[13] = tested on: TK-10 renal
[14] = tested on: NCI-H460 lung
[15] = tested on: HL-60(TB) leukemia
[16] = tested on: HT29 colon
[17] = tested on: SK-MEL-2 melanoma
[18] = tested on: SK-OV-3 ovarian
[19] = tested on: RPMI-8226 leukemia
[20] = tested on: SR leukemia
[21] = tested on: OVCAR-8 ovarian
[22] = tested on: COLO 205 colon
[23] = tested on: IGROV1 ovarian
[24] = tested on: CAKI-1 renal
[25] = tested on: U251 CNS
[26] = tested on: BT-549 breast
[27] = tested on: SK-MEL-28 melanoma
[28] = tested on: HOP-62 NSCLC

Compound: c1ccc(CC(Cc2ccccc2)C2=NCCCN2)cc1
- TGI [1]: > 100 µM
- GI50 [2]: 3.71 µM
- TGI [2]: 17.3 µM
- GI50 [3]: 7.83 µM
- TGI [3]: > 100 µM
- GI50 [4]: 3.37 µM
- TGI [4]: > 100 µM
- GI50 [5]: 2.42 µM
- TGI [5]: 4.97 µM
- GI50 [6]: 17 µM
- TGI [6]: > 100 µM
- GI50 [7]: 1.84 µM
- TGI [7]: 33.2 µM
- GI50 [8]: 3.42 µM
- TGI [8]: > 100 µM
- GI50 [9]: 3.36 µM
- TGI [9]: 9.75 µM
- GI50 [10]: 3.32 µM
- TGI [10]: > 100 µM
- GI50 [11]: 3.26 µM
- TGI [11]: > 100 µM
- GI50 [12]: 2.99 µM
- TGI [12]: > 100 µM
- GI50 [13]: 7.57 µM
- TGI [13]: > 100 µM
- GI50 [14]: 3.36 µM
- TGI [14]: 21.9 µM
- GI50 [15]: 2.38 µM
- TGI [15]: 6.41 µM
- GI50 [16]: 3.48 µM
- TGI [16]: > 100 µM
- GI50 [17]: 2.66 µM
- TGI [17]: 7.91 µM
- GI50 [18]: 2.1 µM
- TGI [18]: 6.44 µM
- GI50 [19]: 3.62 µM
- TGI [19]: 42.3 µM
- GI50 [20]: 3.78 µM
- TGI [20]: > 100 µM
- GI50 [21]: 3.21 µM
- TGI [21]: > 100 µM
- GI50 [22]: 3.49 µM
- TGI [22]: 12.4 µM
- GI50 [23]: 4.2 µM
- TGI [23]: > 100 µM
- GI50 [24]: 6.39 µM
- TGI [24]: > 100 µM
- GI50 [25]: 3.38 µM
- TGI [25]: > 100 µM
- GI50 [26]: 3.77 µM
- TGI [26]: 70.9 µM
- GI50 [27]: 6.4 µM
- TGI [27]: > 100 µM
- GI50 [28]: 4.83 µM
- TGI [28]: > 100 µM
